Assay results: US9963442B2, “Pyridones as herbicides” (E I DU PONT DE NEMOURS AND COMPANY, priority 2014, dated 2018)

Columns and labels:
Assay type in all cases: in vivo
[1] = tested on: wheat (Triticum aestivum); experiment: Test A postemergence application; settings: approx. 10 days
Summary of the method: (§1)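 Visual injury scores on a 0–100 scale (100 = complete control), taken roughly 10 days after treatment in greenhouse relative to untreated plants. Seeded pots got a preemergence directed soil spray; postemergence sprays hit one- to two-leaf plants, 2–10 cm; formulation: solvent mixture with surfactant.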

[2] = tested on: ragweed (common ragweed, Ambrosia elatior); experiment: Test A postemergence application; settings: approx. 10 days
Summary of the method: as §1

[3] = tested on: giant foxtail (Setaria faberii); experiment: Test C preemergence; settings: scale 0 to 100, 0 is no effect, 100 is complete control
Excerpt: (§2) Seeds of plant species selected from blackgrass (Alopecurus myosuroides), Italian ryegrass (Lolium multiflorum), winter wheat (Triticum aestivum), galium (catchweed bedstraw, Galium aparine), corn (Zea mays), large (Lg) crabgrass (Digitaria sanguinalis), giant foxtail (Setaria faberii), johnsongrass (Sorghum halepense), lambsquarters (Chenopodium album), morningglory (Ipomoea coccinea), yellow nutsedge (Cyperus esculentus), pigweed (Amaranthus retroflexus), ragweed (common ragweed, Ambrosia elatior), soybean (Glycine max), barnyardgrass (Echinochloa crus-galli), oilseed rape (Brassica napus), waterhemp (common waterhemp, Amaranthus rudis), and velvetleaf (Abutilon theophrasti) were planted into a blend of loam soil and sand and treated preemergence with test chemicals formulated in a non-phytotoxic solvent mixture which included a surfactant. At the same time, plants selected from these crop and weed species and also chickweed (common chickweed, Stellaria media), kochia (Kochia scoparia), and wild oat (Avena fatua), were planted in pots containing Sunshine Redi-Earth® planting medium comprising spaghnum peat moss, vermiculite, starter nutrients and dolomitic limestone and treated with postemergence applications of test chemicals formulated in the same manner. Plants ranged in height from 2 to 18 cm (1- to 4-leaf stage) for postemergence treatments. Treated plants and controls were maintained in a greenhouse for 13 to 15 days, after which time all species were compared to controls and visually evaluated. Plant response ratings, summarized in Table C, are based on a scale of 0 to 100 where 0 is no effect and 100 is complete control. A dash (-) response means no test result.

[4] = tested on: waterhemp (common waterhemp, Amaranthus rudis); experiment: Test C preemergence; settings: scale 0 to 100, 0 is no effect, 100 is complete control
Excerpt: as §2

[5] = tested on: large (Lg) crabgrass (Digitaria sanguinalis); experiment: Test C preemergence; settings: scale 0 to 100, 0 is no effect, 100 is complete control
Excerpt: as §2

[6] = tested on: winter wheat (Triticum aestivum); experiment: Test C preemergence; settings: scale 0 to 100, 0 is no effect, 100 is complete control
Excerpt: as §2

[7] = tested on: morningglory (Ipomoea coccinea); experiment: Test C preemergence; settings: scale 0 to 100, 0 is no effect, 100 is complete control
Excerpt: as §2

[8] = tested on: pigweed (Amaranthus retroflexus); experiment: Test C preemergence; settings: scale 0 to 100, 0 is no effect, 100 is complete control
Excerpt: as §2

[9] = tested on: johnsongrass (Sorghum halepense); experiment: Test C preemergence; settings: scale 0 to 100, 0 is no effect, 100 is complete control
Excerpt: as §2

[10] = tested on: velvetleaf (Abutilon theophrasti); experiment: Test C preemergence; settings: scale 0 to 100, 0 is no effect, 100 is complete control
Excerpt: as §2

[11] = tested on: yellow nutsedge (Cyperus esculentus); experiment: Test C preemergence; settings: scale 0 to 100, 0 is no effect, 100 is complete control
Excerpt: as §2

soybean (Glycine max) = experiment: Test C preemergence; settings: scale 0 to 100, 0 is no effect, 100 is complete control
Excerpt: as §2

[12] = tested on: barnyardgrass (Echinochloa crus-galli); experiment: Test C preemergence; settings: scale 0 to 100, 0 is no effect, 100 is complete control
Excerpt: as §2

[13] = tested on: Italian ryegrass (Lolium multiflorum); experiment: Test C preemergence; settings: scale 0 to 100, 0 is no effect, 100 is complete control
Excerpt: as §2

[14] = tested on: blackgrass (Alopecurus myosuroides); experiment: Test C preemergence; settings: scale 0 to 100, 0 is no effect, 100 is complete control
Excerpt: as §2

[15] = tested on: oilseed rape (Brassica napus); experiment: Test C preemergence; settings: scale 0 to 100, 0 is no effect, 100 is complete control
Excerpt: as §2

[16] = tested on: lambsquarters (Chenopodium album); experiment: Test C preemergence; settings: scale 0 to 100, 0 is no effect, 100 is complete control
Excerpt: as §2

[17] = tested on: ragweed (common ragweed, Ambrosia elatior); experiment: Test C preemergence; settings: scale 0 to 100, 0 is no effect, 100 is complete control
Excerpt: as §2

corn (Zea mays) = experiment: Test C preemergence; settings: scale 0 to 100, 0 is no effect, 100 is complete control
Excerpt: as §2

[18] = tested on: galium (catchweed bedstraw, Galium aparine); experiment: Test C preemergence; settings: scale 0 to 100, 0 is no effect, 100 is complete control
Excerpt: as §2

SMILES: O=c1cccc(Oc2ncc(Cl)cn2)n1-c1ccc(C(F)(F)F)cn1 [Compound 7]
- Plant response rating (0 to 100 scale, 0 no effect, 100 complete control), Wheat ([1]; 31 g ai/ha): 0
- Plant response rating (0 to 100 scale, 0 no effect, 100 complete control), Wheat ([1]; 125 g ai/ha): 20
- Plant response rating (0 to 100 scale, 0 no effect, 100 complete control), Ragweed ([2]; 31 g ai/ha): 30
- Plant response rating (0 to 100 scale, 0 no effect, 100 complete control), Ragweed ([2]; 125 g ai/ha): 60
- Plant response rating, Foxtail, Giant ([3]; 16 g ai/ha): 25
- Plant response rating, Foxtail, Giant ([3]; 31 g ai/ha): 60
- Plant response rating, Foxtail, Giant ([3]; 62 g ai/ha): 85
- Plant response rating, Foxtail, Giant ([3]; 125 g ai/ha): 98
- Plant response rating, Waterhemp ([4]; 16 g ai/ha): 85
- Plant response rating, Waterhemp ([4]; 31 g ai/ha): 85
- Plant response rating, Waterhemp ([4]; 62 g ai/ha): 100
- Plant response rating, Waterhemp ([4]; 125 g ai/ha): 100
- Plant response rating, Crabgrass, Large ([5]; 16 g ai/ha): 5
- Plant response rating, Crabgrass, Large ([5]; 31 g ai/ha): 60
- Plant response rating, Crabgrass, Large ([5]; 62 g ai/ha): 95
- Plant response rating, Crabgrass, Large ([5]; 125 g ai/ha): 100
- Plant response rating, Wheat ([6]; 16 g ai/ha): 0
- Plant response rating, Wheat ([6]; 31 g ai/ha): 0
- Plant response rating, Wheat ([6]; 62 g ai/ha): 0
- Plant response rating, Wheat ([6]; 125 g ai/ha): 0
- Plant response rating, Morningglory ([7]; 16 g ai/ha): 0
- Plant response rating, Morningglory ([7]; 31 g ai/ha): 0
- Plant response rating, Morningglory ([7]; 62 g ai/ha): 10
- Plant response rating, Morningglory ([7]; 125 g ai/ha): 25
- Plant response rating, Pigweed ([8]; 16 g ai/ha): 20
- Plant response rating, Pigweed ([8]; 31 g ai/ha): 100
- Plant response rating, Pigweed ([8]; 62 g ai/ha): 100
- Plant response rating, Pigweed ([8]; 125 g ai/ha): 100
- Plant response rating, Johnsongrass ([9]; 16 g ai/ha): 0
- Plant response rating, Johnsongrass ([9]; 31 g ai/ha): 0
- Plant response rating, Johnsongrass ([9]; 62 g ai/ha): 10
- Plant response rating, Johnsongrass ([9]; 125 g ai/ha): 20
- Plant response rating, Velvetleaf ([10]; 16 g ai/ha): 5
- Plant response rating, Velvetleaf ([10]; 31 g ai/ha): 10
- Plant response rating, Velvetleaf ([10]; 62 g ai/ha): 35
- Plant response rating, Velvetleaf ([10]; 125 g ai/ha): 55
- Plant response rating, Nutsedge, Yellow ([11]; 16 g ai/ha): 0
- Plant response rating, Nutsedge, Yellow ([11]; 31 g ai/ha): 0
- Plant response rating, Nutsedge, Yellow ([11]; 62 g ai/ha): 0
- Plant response rating, Nutsedge, Yellow ([11]; 125 g ai/ha): 15
- Plant response rating, Soybean (soybean (Glycine max); 16 g ai/ha): 10
- Plant response rating, Soybean (soybean (Glycine max); 62 g ai/ha): 15
- Plant response rating, Soybean (soybean (Glycine max); 125 g ai/ha): 50
- Plant response rating, Barnyardgrass ([12]; 16 g ai/ha): 5
- Plant response rating, Barnyardgrass ([12]; 31 g ai/ha): 10
- Plant response rating, Barnyardgrass ([12]; 62 g ai/ha): 35
- Plant response rating, Barnyardgrass ([12]; 125 g ai/ha): 75
- Plant response rating, Ryegrass, Italian ([13]; 16 g ai/ha): 0
- Plant response rating, Ryegrass, Italian ([13]; 31 g ai/ha): 0
- Plant response rating, Ryegrass, Italian ([13]; 62 g ai/ha): 10
- Plant response rating, Ryegrass, Italian ([13]; 125 g ai/ha): 30
- Plant response rating, Blackgrass ([14]; 16 g ai/ha): 0
- Plant response rating, Blackgrass ([14]; 31 g ai/ha): 0
- Plant response rating, Blackgrass ([14]; 62 g ai/ha): 30
- Plant response rating, Blackgrass ([14]; 125 g ai/ha): 85
- Plant response rating, Oilseed Rape ([15]; 16 g ai/ha): 5
- Plant response rating, Oilseed Rape ([15]; 31 g ai/ha): 35
- Plant response rating, Oilseed Rape ([15]; 62 g ai/ha): 85
- Plant response rating, Oilseed Rape ([15]; 125 g ai/ha): 95
- Plant response rating, Lambsquarters ([16]; 16 g ai/ha): 15
- Plant response rating, Lambsquarters ([16]; 31 g ai/ha): 40
- Plant response rating, Lambsquarters ([16]; 62 g ai/ha): 75
- Plant response rating, Lambsquarters ([16]; 125 g ai/ha): 75
- Plant response rating, Ragweed ([17]; 16 g ai/ha): 35
- Plant response rating, Ragweed ([17]; 31 g ai/ha): 45
- Plant response rating, Ragweed ([17]; 62 g ai/ha): 50
- Plant response rating, Ragweed ([17]; 125 g ai/ha): 40
- Plant response rating, Corn (corn (Zea mays); 16 g ai/ha): 0
- Plant response rating, Corn (corn (Zea mays); 31 g ai/ha): 0
- Plant response rating, Corn (corn (Zea mays); 62 g ai/ha): 10
- Plant response rating, Corn (corn (Zea mays); 125 g ai/ha): 10
- Plant response rating, Galium ([18]; 16 g ai/ha): 0
- Plant response rating, Galium ([18]; 31 g ai/ha): 50
- Plant response rating, Galium ([18]; 62 g ai/ha): 98
- Plant response rating, Galium ([18]; 125 g ai/ha): 100
